Measured values as given in patent publication US5376638A (Amylin Pharmaceuticals, Inc., priority 1992, dated 1994).
Entries after “also recorded” stand apart in the source; their conditions may differ. Where no end group is shown, it is not given here.

Columns and labels:
[1] = system: insulin-stimulated glycogen synthesis in soleus muscle; experiment: soleus muscle assay (insulin-stimulated glycogen synthesis); set-up: species or system rat; conditions: for amylin antagonist action in the soleus muscle assay: in the presence of 100 nM rat amylin
Procedure: Concentrations of peptide dissolved in carrier-free buffers are determined by quantitative amino acid analysis, as described therein. The ability of compounds to act as antagonists in this assay is determined by measuring IC50 values. Standard errors are determined by fitting of sigmoidal dose response curves using a four parameter logistic equation (De Lean, A., Munson, P. J., Guardabasso, V. and Rodbard, D. (1988) ALLFIT, Version 2.7, National Institute of Child Health and Human Development, N.I.H. Bethesda, Md., 1 diskette). […] Similar results were obtained with the other antagonist compounds listed above.

[2] = fed rats, antagonist preinfusion; cited from earlier work
[3] = plasma lactate and glucose after subcutaneous rat amylin in anesthetized rats; assay type: in vivo, Male Harlan Sprague Dawley rats; conditions: 0.5 mg i.v. bolus + 1 mg/hr infusion before 100 μg s.c. rat amylin
[4] = system: amylin-induced hypocalcemia; experiment: amylin-induced hypocalcemia with antagonist infusion; assay type: in vivo; conditions: 1.5 mg + 3 mg/hr infusion, FIG. 4
vascular CGRP1 receptor = target: T1, vascular CGRP1 receptor (Rattus norvegicus, UniProt Q63118+Q9JJ74); experiment: hypotensive response to intravenous amylin in vivo; conditions: three times the dose used in this study
T1 construct: from tissue; host or cells: vasculature of the intact animal (in vivo blood pressure response)
T1 sequence (Q63118 24-464): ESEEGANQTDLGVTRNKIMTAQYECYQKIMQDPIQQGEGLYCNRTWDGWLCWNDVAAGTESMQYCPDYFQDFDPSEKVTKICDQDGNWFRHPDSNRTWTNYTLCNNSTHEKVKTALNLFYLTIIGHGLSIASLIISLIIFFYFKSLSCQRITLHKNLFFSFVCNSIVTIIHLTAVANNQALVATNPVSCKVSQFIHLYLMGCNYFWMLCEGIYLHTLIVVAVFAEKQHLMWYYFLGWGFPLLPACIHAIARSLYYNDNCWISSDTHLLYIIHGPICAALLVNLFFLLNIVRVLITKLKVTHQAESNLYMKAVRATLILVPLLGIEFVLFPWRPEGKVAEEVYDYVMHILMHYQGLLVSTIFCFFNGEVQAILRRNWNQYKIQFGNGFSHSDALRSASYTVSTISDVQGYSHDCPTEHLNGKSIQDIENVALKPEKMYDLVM
T1 sequence (Q9JJ74 27-148 partner): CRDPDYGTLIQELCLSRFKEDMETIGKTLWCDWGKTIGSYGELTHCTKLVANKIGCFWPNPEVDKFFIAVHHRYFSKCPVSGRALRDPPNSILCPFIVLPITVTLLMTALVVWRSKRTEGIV

plasma renin activity = plasma renin activity after subcutaneous rat amylin in anesthetized rats; assay type: in vivo, Male Harlan Sprague Dawley rats; conditions: 0.5 mg i.v. bolus + 1 mg/hr infusion before 100 μg s.c. rat amylin, n=1, FIG. 3
Procedure: (§1) Male Harlan Sprague Dawley rats were housed at 22.7°±0.8° C. in a 12:12 hour light:dark cycle (experiments being performed during the light cycle) and fed and watered ad libitum (Diet LM-485, Teklad, Madison, Wis.). Animals used were aged 87-94 days and weighed 353-392 g. They were deprived of food for ~20 hours prior to experimentation.
Anesthesia was induced with 5% halothane, maintained at 2% during surgery and at 0.8-1% during recordings. Tracheotomy and cannulation of the right femoral artery and saphenous vein were performed. […] Colonic temperature was measured using a thermistor probe and controller (Model 73A, YSI, Yellow Springs, Ohio) which provided closed-loop control of core temperature by switching a heated operating table. […]
The remainder was frozen at -20° C. for measurement of plasma renin activity. Plasma renin activity was measured using the Gammacoat™ [^125 I] radioimmunoassay kit (Incstar Corp, Stillwater, Minn.) modified to accomodate small sample volumes. The assay system measured the renin-catalysed rate of generation of angiotensin-I in the presence of phenylmethylsulfonyl fluoride (PMSF) to prevent its proteolytic breakdown and/or conversion to angiotensin-II. Angiotensin-I generated in 90 minutes at 37° C. was then detected by specific radioimmunoassay with less than 0.02% cross reactivity to angiotensin-II, angiotensin-III or tetradecapeptide (renin substrate). […]

CGRP receptors = CGRP receptors (Homo sapiens, UniProt O60894+Q16602); experiment: affinity for CGRP receptors in vitro; assay type: binding
Sequence of CGRP receptors (Q16602 23-461): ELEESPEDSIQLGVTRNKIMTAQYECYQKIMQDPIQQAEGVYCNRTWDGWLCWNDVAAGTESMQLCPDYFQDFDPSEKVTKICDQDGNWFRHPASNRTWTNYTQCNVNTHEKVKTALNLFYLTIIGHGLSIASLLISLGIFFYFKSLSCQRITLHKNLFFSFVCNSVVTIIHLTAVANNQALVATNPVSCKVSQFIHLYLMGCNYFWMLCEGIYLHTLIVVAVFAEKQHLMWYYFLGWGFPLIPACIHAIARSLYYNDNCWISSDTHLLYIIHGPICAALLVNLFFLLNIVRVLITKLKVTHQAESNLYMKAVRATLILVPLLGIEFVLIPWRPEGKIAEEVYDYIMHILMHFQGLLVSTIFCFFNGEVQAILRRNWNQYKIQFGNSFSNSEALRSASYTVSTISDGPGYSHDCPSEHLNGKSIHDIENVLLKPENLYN
Sequence of CGRP receptors (O60894 27-148 partner): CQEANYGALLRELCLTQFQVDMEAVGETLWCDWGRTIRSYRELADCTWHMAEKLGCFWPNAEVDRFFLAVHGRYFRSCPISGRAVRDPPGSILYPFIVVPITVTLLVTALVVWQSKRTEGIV

[5] = mean arterial pressure after amylin injection in rats; assay type: in vivo, Male Harlan Sprague Dawley rats; conditions: 100 μg rat amylin s.c., FIG. 1c
Procedure: as §1
Anesthesia was induced with 5% halothane, maintained at 2% during surgery and at 0.8-1% during recordings. Tracheotomy and cannulation of the right femoral artery and saphenous vein were performed. The femoral arterial line was connected to a pressure transducer (Spectramed P23XL transducer, Model 13-4615-58 amplifier, Gould, Cleveland, Ohio) and perfused with heparinized saline (2 U/ml) at 3.0 ml/hr. Colonic temperature was measured using a thermistor probe and controller (Model 73A, YSI, Yellow Springs, Ohio) which provided closed-loop control of core temperature by switching a heated operating table. The signal for mean arterial pressure was periodically sampled and stored with 12-bit precision at 1 Hz using a computerized data acquisition system (DT2801A A/D converters, DataTranslation, Marlboro, Mass.; AST Premium 386 computer, AST Research, Irvine, Calif.; Labtech Notebook software, Laboratory Technologies Corp, Wilmington, Mass.). […]

With ^8-32 calcitonin(salmon) the “agonist activity in the soleus muscle assay” value (“agonist activity” below) [1] was “negligible agonist activity” and the “amylin antagonist action in the soleus muscle assay” value (from here on “amylin antagonist action”) [1] was “act as amylin antagonists”.
In the case of “^8-37 CGRP (VTHRLAGLLSRSGGVVKNNFVPTNVGSKAF; ends and bridges not checked; UniProt P06881 90-119, looked up, fragment) [reference compound]”, the “agonist activity” value [1] is given as “negligible agonist activity”, the “amylin antagonist action” value [1] is given as “act as amylin antagonists” and the “insulin concentration 30 minutes following arginine infusion versus normal controls” value [2] is given as “almost twice as high”.
With “^8-37 amylin (ATQRLANFLVHSSNNFGAILSSTNVGSNTY; ends and bridges not checked; UniProt P10997 41-70, looked up, fragment) [^ 8-37 amylin, amylin receptor antagonist]” the “agonist activity” value [1] was “negligible agonist activity” and the “amylin antagonist action” value [1] was “act as amylin antagonists”.
In the case of “acetyl-^30 Asn^32 Tyr^8-32 calcitonin(salmon)”, the “amylin-induced increase in plasma glucose after antagonist infusion” value [3] is reported as “prevented”, the “amylin-induced increase in plasma lactate after antagonist infusion” value [3] is reported as “prevented” and the “prevention of amylin-induced hypocalcemia” value [4] is reported as “did not prevent”. For the same substance, the “block of the hypotensive response to intravenous amylin” value (vascular CGRP1 receptor) was “does not fully block”, the “amylin-induced elevation of plasma renin activity after antagonist preinfusion” value (plasma renin activity) was “no amylin-induced elevation” and the “affinity for CGRP receptors in vitro” value (CGRP receptors) was “low affinity”.
With “rat amylin: Synthetic rat amylin (Bachem, Torrance, Calif.)” the “change in mean arterial pressure” value [5] was “lack of change; also recorded: not associated with any significant change”.
